{"source": "patent EP0155872A1", "about": "“Process for reducing the lignin content of plants, and compositions for putting it into use” (priority 1984, dated 1985)", "key": {"CAD de peuplier": {"target": "T1, CAD de peuplier (Populus deltoides, UniProt P31657)", "T1 construct": "CAD de peuplier isolée selon la méthode deSARNI et al,1984; from tissue; host or cells: poplar plant material", "T1 sequence (P31657 1-357)": "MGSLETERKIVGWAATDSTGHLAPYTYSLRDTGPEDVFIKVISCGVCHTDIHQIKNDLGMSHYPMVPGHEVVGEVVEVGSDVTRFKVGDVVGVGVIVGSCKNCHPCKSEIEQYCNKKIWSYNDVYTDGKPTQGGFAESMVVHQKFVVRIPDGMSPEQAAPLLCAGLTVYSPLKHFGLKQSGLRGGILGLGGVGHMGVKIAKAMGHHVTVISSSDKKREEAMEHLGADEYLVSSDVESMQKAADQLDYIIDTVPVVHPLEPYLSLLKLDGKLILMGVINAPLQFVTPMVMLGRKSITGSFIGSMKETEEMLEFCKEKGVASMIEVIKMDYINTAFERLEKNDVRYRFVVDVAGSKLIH", "assay": "In vitro inhibition of isolated poplar cinnamyl alcohol dehydrogenase (CAD) at 2 mM", "assay_type": "biochemical", "settings": "2mM, CAD de peuplier; for inhibition at 2000 µM: read-out: Inhibition à 2mM %", "excerpt": "Après réacidification à pH2 par de l'acide chlorhydrique 3N et centrifugation, le surnageant contenant les acides cinnamiques est séparé du résidu. Les \"poudres alcool-benzène\" ainsi hydrolysées sont lavées par de l'eau distillée jusqu'à pH neutre et séchées, sous vide dans un dessiccateur en présence de silica.-gel. Les teneurs en lignines sont estimées par la méthode gravimétriques de KLASON (Tappi Standard method Tl2m) modifiée par EFFLAND. Tappi, 60, p 143-144, 1977. On rapporte dans le tableau 1) suivant les résultats obtenus concernant l'effet mesuré in vitro d'inhibiteurs selon l'invention à une concentration de 2mM vis-à-vis de la CAD de peuplier isolée selon la méthode deSARNI et al,1984,EUROP JOURNAL OF BIOCHEMISTRY, 18(1),139, 259-265 On indique également dans ce tableau les résultats obtenus avec des composés portant des substitutions différentes de ceux mis enoe uvre dans l'invention. Les chiffres indiqués entre parenthèses a côté des formules correspondent aux composés identifiés dans les exemples de préparation 2 et 3.\nOn rapporte dans le tableau 2 suivant les pourcentages d'inhibition de la CAD obtenus en utilisant, à raison de 2 mM, différents composés capables de complexer Zn."}, "CAD": {"target": "T2, CAD (Populus deltoides, UniProt P31657)", "T2 sequence (P31657 1-357)": "T1 sequence (P31657 1-357)", "assay": "Specificity of the inhibitors among the enzymes tested", "assay_type": "biochemical"}, "tiges de peuplier": {"test_system": "tiges de peuplier", "assay": "Incorporation of cinnamic acid (14C3) into lignins in cut poplar stems", "assay_type": "in vivo", "settings": "96 heures de métabolisation, read-out: inhibition de l'incorporation de l'acide cinnamique dans le polymère", "excerpt": "Afin de vérifier chez des tiges de peuplier l'action de l'OHPAS et du NH2PAS, on réalise des incorporations d'acide cinnamique (5 yCi) à des rameaux comportant 12 entrenoeuds selon la technique de la tige sectionnée décrite par BOUDET,dans C.R. Acad. Sci.Paris, p. 1966-1968, 269, 1969. La radioactivité des lignines est mesurée après 96 heures de métabolisation.\nLorsque la métabolisation est effectuée en présence du OHPAS et du NH2PAS, on observe une diminution de la radioactivité incorporée dans les lignines. Ainsi, l'OHPAS, à la concentration de 160 µM inhibe de 46% l'incorporation de l'acide cinnamique dans le polymère. Bien que les concentrations en inhibiteurs soient plus faibles, l'effet des inhibiteurs apparaîtsemanifester de façon plus nette-pour une métabolisation de plus longue durée."}, "plants de mais [1]": {"test_system": "plants de mais", "assay": "Primary metabolism of treated maize plants (soluble proteins, chlorophylls, nucleic acids)", "assay_type": "in vivo", "settings": "plants âgés de 30 jours; 80 µM", "description": "(§1) Les différentes études dont les résultats sont rapportés ci-après ont été réalisées à partir de plants de mais âgés de 30 jours et traités par l'OHPAS et le NH2PAS à la concentration de 80 µM.\nAfin d'estimer l'action de l'OHPAS et du NH2PAS sur le métabolisme primaire, les teneurs de trois classes de composés ont été estimées : les protéines solubles, les chlorophyllles et les acides nucléiques."}, "plants de mais [2]": {"test_system": "plants de mais", "assay": "Soluble phenolic compounds of treated maize plants", "assay_type": "in vivo", "settings": "plants âgés de 30 jours, 80 µM; for FLAVONOIDES / PHENOLS SIMPLES: mean of 3", "description": "as §1\nLe traitement des plants par les inhibiteurs ne modifie pas les teneurs en ces composés comme le montrent les résultats rapportés dans le tableau 6 ci-après. Cependant, on constate une baisse importante (40% avec l'OHPAS) des quantités de flavonoïdes."}, "CCR": {"test_system": "CCR", "assay": "Inhibition of cinnamoyl:CoA reductase (CCR)", "assay_type": "biochemical"}}, "note": "Values joined by “and” are separate entries in the source; they are usually repeats but may differ in a detail not shown here. Identical values can stand only once.", "data": [{"compound": "CC(C)(C)OC(=O)C[S+]([O-])Nc1ccccc1O", "note": "(stereo not shown) [composé 2, N-(o -hydroxy phényl)sulfinamoyl acétate de tertiobutyle]", "values": [{"measurement": "inhibition at 2000 µM", "setting": "CAD de peuplier", "result": 90, "unit": "%"}, {"measurement": "spécificité en regard des enzymes testées", "setting": "CAD", "result": "spécificité stricte vis-à-vis de la CAD"}, {"measurement": "inhibition at 160 µM", "setting": "tiges de peuplier", "result": 46, "unit": "%"}, {"measurement": "ADN (mg/g PS)", "setting": "plants de mais [1]", "result": "1,35 ± 0,6 mg/g PS"}, {"measurement": "ARN (mg/g PS)", "setting": "plants de mais [1]", "result": "21,08 ± 0,3 mg/g PS"}, {"measurement": "Chlorophylles (mg/g PS)", "setting": "plants de mais [1]", "result": "7,80 ± 0,3 mg/g PS"}, {"measurement": "Protéines solubles (mg/g PS)", "setting": "plants de mais [1]", "result": "49,50 ± 1 mg/g PS"}, {"measurement": "% PERTE (phénols simples)", "setting": "plants de mais [2]", "result": 0, "unit": "%"}, {"measurement": "% PERTE (flavonoïdes)", "setting": "plants de mais [2]; listed as OHPAS", "result": "40% and 42%"}, {"measurement": "FLAVONOIDES", "setting": "plants de mais [2]", "result": "28 ± 11 mg d'acide gallique par g de matériel"}, {"measurement": "PHENOLS SIMPLES", "setting": "plants de mais [2]", "result": "107 ± 8 mg d'acide gallique par g de matériel"}]}, {"compound": "CC(C)(C)OC(=O)C[S+]([O-])Nc1ccccc1N", "note": "(stereo not shown) [composé 5, N-(o-Amino phényl)Sulfinamoyl Acétate de tertiobutyle]", "values": [{"measurement": "Inhibition à 2mM %", "setting": "CAD de peuplier; 2000 µM", "result": 80, "unit": "%"}, {"measurement": "inhibition at 2000 µM", "setting": "CAD de peuplier", "result": 90, "unit": "%"}, {"measurement": "inhibition de la CCR", "setting": "CCR", "result": "inhibe également la CCR"}, {"measurement": "ADN (mg/g PS)", "setting": "plants de mais [1]", "result": "1,38 ± 0,7 mg/g PS"}, {"measurement": "ARN (mg/g PS)", "setting": "plants de mais [1]", "result": "19,81 ± 0,2 mg/g PS"}, {"measurement": "Chlorophylles (mg/g PS)", "setting": "plants de mais [1]", "result": "7,69 ± 0,3 mg/g PS"}, {"measurement": "Protéines solubles (mg/g PS)", "setting": "plants de mais [1]", "result": "49,30 ± 2 mg/g PS"}, {"measurement": "% PERTE (flavonoïdes)", "setting": "plants de mais [2]", "result": 48, "unit": "%"}, {"measurement": "% PERTE (phénols simples)", "setting": "plants de mais [2]", "result": 0, "unit": "%"}, {"measurement": "FLAVONOIDES", "setting": "plants de mais [2]", "result": "25 ± 14 mg d'acide gallique par g de matériel"}, {"measurement": "PHENOLS SIMPLES", "setting": "plants de mais [2]", "result": "101 ± 10 mg d'acide gallique par g de matériel"}]}]}
